Data set [1] has as its system Ent. faecalis JH2-2. Kind of data set: microbe, parasite or virus in culture. On the procedure:
(§1) Peptides dissolved in sterile distilled water and comparator antibiotics dissolved in the appropriate solvents[38] were added to sterile U-bottom polypropylene 96-well microplates at desired concentrations.

Data set [2] concerns List. monocytogenes NCTC 11994. Kind of data set: microbe, parasite or virus in culture. The conditions noted are these: NCTC 11994. On the procedure:
as §1

The test system of data set [3] is S. aureus. Nature of the data set: microbe, parasite or virus in culture. The conditions noted are these: for MIC: strain RN4220, Sensitive, cation adjusted MHB, 18–24 h. The method, then: as §1
The subject of data set [4] is Sal. typhimurium SL1344. Nature of the data set: microbe, parasite or virus in culture. The method, then: as §1
Data set [5] has as its system C. coli. On the procedure:
as §1

Data set [6] relates to MRSA strains. Kind of data set: Time kill kinetics. Format: cell-based, Staphylococcus aureus. The conditions noted are these: 3× MIC, MHB. On the procedure: Assessment of the bactericidal activity of peptides and comparator antibiotics was performed as previously described[39] using exponential-phase cultures of pathogens grown in MHB ([…]). Peptides were added at concentrations 3 times their MIC values. Experiments were performed in quadruplicates, and CFU/ml was calculated at different time points after over overnight incubation.

The test system of data set [7] is HUVEC and HepG2 cells. The conditions noted are these: for total growth inhibition (TGI): HUVEC and HepG2 cells (cell line not given). The method, then:
Cytotoxic activity of the identified peptides was determined using HUVEC and HEPG2 cells as described previously.[41],[42] […] Significant responses were defined when observed cell growth was ≤50% and tube length was ≤70% using the proliferation and tube formation assays respectively. Permeabilization of eukaryotic membrane by Lynronne-1, Lynronne-2 and Lynronne-3 was also investigated using HepG2 cells as described previously.[43]

A short description of data set [8]: Peptide-lipid interaction with pure lipids, lipid monolayer. The data set is classed as binding. The conditions noted are these: peptide 1 µg/ml; for Interaction with pure lipids: POPG, cardiolipin, LTA, POPE above POPC, initial surface pressure 30 ± 0.5 mN/m. The method, then:
Membrane permeabilsation was evaluated using propidium iodide assay as previously explained,[43] with CTAB as positive control. Peptide–lipid interaction was measured using reconstituted lipid monolayer.[44] Total lipid extract from overnight liquid cultures of MRSA USA300 was obtained by Folch extraction, resuspended in chloroform and stored at −20 °C under nitrogen conditions. Pure bacterial and eukaryotic lipids, POPG, cardiolipin, LTA, POPE and POPC (Avanti Polar Lipid USA) were reconstituted in chloroform at 1 mg/ml and stored at −20 °C under nitrogen. Using a 50 µl Hamilton’s syringe, total MRSA lipid extract or pure lipids were spread at the surface of PBS creating a lipid monolayer at the air-water interface until an initial surface pressure of 30 ± 0.5 mN/m was reached. This corresponds to a lipid packing density theoretically equivalent to that of the outer leaflet of the cell membrane.[45] After 5–10 min of incubation allowing evaporation of the solvent and stabilization of the initial surface pressure, peptides were injected into the PBS (pH 7.4, volume 800 µl) sub-phase using a 10 µl Hamilton syringe. The variation of the surface pressure caused by peptide injection was then continuously monitored using a fully automated microtensiometer (µTROUGH SX, Kibron Inc., Helsinki, Finland) until reaching equilibrium (maximal surface pressure increase usually obtained after 15–25 min). Critical pressure of insertion of each peptide in the different lipids was also determined by changing the initial pressure of lipid monolayer (from 10 and 30 mN/m) and measuring the variation of pressure caused by the injection of peptide (at 1 µg/ml final concentration). All experiments were carried out in a controlled atmosphere at 20 °C ± 1 °C and data were analyzed using the Filmware 2.5 program (Kibron Inc., Helsinki, Finland). Variation of surface pressure was plotted as a function of initial surface pressure and critical pressure of insertion was calculated as the theoretical value of initial pressure of lipid monolayer not permissive to peptide insertion, i.e., a variation of pressure equal to 0 mN/m. The accuracy of the system under our experimental conditions was determined to be ± […] for surface pressure measurements.

Data set [9] deals with USA300 MRSA (BAA-1717). Nature of the data set: Murine model of MRSA wound infection. The conditions noted are these: ICR mice, topical 2% once daily for 3 days, five mice/group. The data set is classed as in vivo, Staphylococcus aureus. The method, then: The efficacy of Lynronne-1, Lynronne-2 and Lynronne-3 for treating a wound infection caused by USA300 community-associated methicillin resistant S. aureus (MRSA, strain BAA-1717) was evaluated using a murine wound model with ICR mice.[24] A sharp punch (ID 12 mm) was used to create excisional skin wounds in groups of five female ICR mice (5–6 weeks old). The mice were inoculated topically on the wound area (5 µl per wound) with 1.05 × 10^5 CFU/mouse of strain BAA-1717 suspended in 5 µl PBS. Peptides (2 or 10% w/v) in PBS (pH 7.4), control (PBS), and mupirocin 2% (Dermasafe® ointment) were topically applied (20 µl/mouse) directly to wounds 2 h post infection and once daily thereafter for three consecutive days. Test animals were sacrificed and the wound tissue was excised for enumeration of bacteria cells (CFU/wound). A two-log reduction in the bacterial count (≥99% reduction) relative to the control group indicates significant activity. Statistical significance (P < 0.05) was performed with one-way analysis of variance (ANOVA) followed by use of the Dunnett’s method.

Data set [10] can be described thus: in vitro. The conditions noted are these: 25% serum. The method, then: The stability of Lynronne-1, Lynronne-2 and Lynronne-3 in the presence of serum was investigated by monitoring the concentrations of the remaining soluble peptides by reverse phase high-performance liquid chromatography (RP-HPLC), as described previously by Nguyen and colleagues.[26] Degradation of Lynronne-1, Lynronne-2 and Lynronne-3 in the presence of trypsin was adapted from a previously described method.[46] Briefly, trypsin (5 µl of 0.5 ng/ml) and 37.5 µl trypsin activation buffer (50 mM Tris, 2 mM CaCl2, pH 7.8-8) was added to 7.5 µl of 5 mg/ml Lynronne-1, Lynronne-2 and Lynronne-3 and incubated at 37 °C for different time points (0, 1, 3, and 24 h). An aliquot from each reaction mixture at 0 h was prepared to allow matrix-assisted laser desorption/ionization time-of-flight (MALDI-TOF) mass spectrometric verification of the synthetic peptides prior to incubation. Trypsin action buffer (5 µl) and peptides without trypsin was used as negative control. After the various incubation times, the reaction mixtures were acidified by addition of an equal volume (50 µl) of 10% (v/v) trifluroacetic acid (TFA) to stop further enzyme activity. Lynronne-1, Lynronne-2 and Lynronne-3 degradation products were evaporated to dryness and reconstituted in acetonitrile/water/TFA (40/59.5/0.5%, v/v/v). Samples (1 µl) were carefully placed onto a stainless steel (MALDI) target, covered with 1 µl of matrix (53 mM a-cyano-4-hydroxycinnamic acid in acetonitrile/water/TFA, 70/29.97/0.03%, v/v/v) solution before analysis by mass spectrometry.

In data set [11] the test system is human and sheep erythrocytes.
Description: The haemolytic activity of peptides was determined by measuring haemoglobin leakage from human and sheep erythrocytes (Divbioscience, NL) after 1 h incubation at OD450nm. Cetyltrimethylammonium bromide (CTAB), a non-specific detergent was also included as a positive control. Triton-X 100 (0.1% v/v) was also used as an indicator of 100% haemolysis while PBS treatment represented auto-haemolysis.

Ends that are not written are not given here. Some results are limits rather than exact numbers.

Regarding HLRRINKLLTRIGLYRHAFG-NH2 [Lynronne-2], the MIC in data set [1] is 32 µg/mL; in data set [2], 32 µg/mL; in data set [3], 32 µg/mL; in [4], 32 µg/mL; in [5], above 128 µg/mL. In addition, the “Reduction in viable count” value in [6] (in 30 min) is recorded as above 3 log10 CFU/ml. For the same substance, the Cytotoxic activity entry in [7] is recorded as “no cytotoxic activity”. In addition, in data set [8], the “Interaction with pure lipids” value is given as “preferentially interact with lipids specific to bacteria”. For the same substance, the “Affinity for lipids by critical pressure of insertion” value in data set [8] (initial pressure varied 10 to 30 mN/m) is listed as “highest affinity for LTA”. The “Colony count relative to the control group treated with PBS” value in data set [9] was “No significant decreases”. In [10], this substance returned a fraction remaining at 2 h of at least 60%. The share remaining at 6 h in [10] came out at 42%. Also, in data set [11], the “Haemolytic activity against red blood cells” value (“Haemolytic activity” below) is “little haemolytic activity”.
LPRRNRWSKIWKKVVTVFS-NH2 [Lynronne-1]: the MIC amounted to 32 µg/mL in [1]; 32 µg/mL in data set [2]; 32 µg/mL in data set [3]; 32 µg/mL in data set [4]; 64 µg/mL in data set [5]. For the same substance, in data set [3], the “MIC range for methicillin-resistant S. aureus (MRSA) strains” value is 8 to 32 µg/mL. Besides, the “Reduction in viable count” value in data set [6] (within the first 10 min) is listed as above 8 log10 CFU/ml. In [7], the “total growth inhibition (TGI)” value was 67.1 µg/mL. Moreover, the “Interaction with pure lipids” value in [8] is listed as “preferentially interact with lipids specific to bacteria”. The “Colony count relative to the control group treated with PBS” value in data set [9] was “significant decrease”. For the same substance, the fraction remaining at 2 h in [10] worked out at 48%. Also, in [10], the fraction remaining at 6 h was determined as 15%. In data set [11], the “Haemolytic activity” value is listed as “little haemolytic activity”.
With NRFTARFRRTPWRLCLQFRQ-NH2 [Lynronne-3], the MIC in data set [1] came out at 64 µg/mL; in data set [2], 32 µg/mL; in [3], 32 µg/mL; in data set [4] it was 64 µg/mL; in data set [5], 128 µg/mL. In data set [3], the “MIC range for methicillin-resistant S. aureus (MRSA) strains” value was 32 to 128 µg/mL. In addition, in [6] (within the first 10 min), the “Reduction in viable count” value is above 8 log10 CFU/ml. In data set [7], the “total growth inhibition (TGI)” value was determined as 61.2 µg/mL. For the same substance, in [8], the “Interaction with pure lipids” value is recorded as “preferentially interact with lipids specific to bacteria”. In [9], the “Colony count relative to the control group treated with PBS” value is reported as “No significant decreases”. Further, in [10], the fraction remaining at 2 h was at least 88%. Further, the share remaining at 6 h in data set [10] stood at 34%. In data set [11], the “Haemolytic activity” value is recorded as “little haemolytic activity”.

By amount remaining is commonly meant the share of the starting amount still present when the sample was taken. High values mean greater stability, low ones a greater loss.
